Measured values as given in patent US20220089609A1, “SUBSTITUTED QUINAZOLINONE DERIVATIVES AND THEIR USE AS POSITIVE ALLOSTERIC MODULATORS OF MGLUR4” (DOMAIN THERAPEUTICS, priority 2018, published 2022).
Where “and” joins values, the source holds several entries; their conditions need not be identical. Identical values can stand only once. Counter-ions that a name gives are not always drawn.

Biological target: T1, human mGluR4 (hmGluR4) (Homo sapiens, UniProt Q14833)
T1 construct: expressed in transfected cells; host or cells: HEK-293 cells, transient co-transfection by electroporation
Test: Calcium assay EC50 determination, positive allosteric modulator activity on hmGluR4 transiently over-expressed in HEK-293 cells
Format: cell-based
Settings: for EC50: PAM mode with EC20 glutamate, hmGluR4 in HEK-293 cells, intracellular calcium (Fluo4AM), read-out: mGluR4 positive allosteric modulator activity, half maximal effective concentration (EC50); for PAM activity on mGluR4: up to 100 μM
Description: Compounds are tested successively for their agonist and positive allosteric modulator activities on human mGluR4 (hmGluR4) transiently over-expressed in HEK-293 cells. Compounds exert agonist activity if, by themselves in absence of glutamate, they are able to activate hmGluR4; and they exert positive allosteric modulator activity if they increase the action of glutamate.
HEK-293 cells are maintained in Modified Eagle's Medium supplemented with 10% Foetal Calf Serum, 1% Penicillin/Streptomycin and 1% non-essential amino acids at 37° C./5% CO2.
Cells are co-transfected by electroporation with four DNA plasmids encoding hmGluR4, a chimeric G protein allowing redirection of the activation signal to intracellular calcium pathway, and glutamate transporters to decrease extracellular glutamate concentration so as to limit receptor desensitization. After transfection, cells are cultured for 24 h at 37° C./5% CO2.
Calcium Assay EC50 determination
Receptor activity is detected by changes in intracellular calcium measured using the fluorescent Ca^2+ sensitive dye, Fluo4AM (Molecular Probes).
On the day of the assay, culture medium is aspirated and replaced during 3 hours by medium without serum supplemented with 1% Glutamax, 1% Penicillin/Streptomycin and 1% non-essential amino acids. Then, cells are washed with freshly prepared buffer B (HBSS 1× (PAA), Hepes 20 mM, MgSO4-7H2O 1 mM, Na2CO3 3.3 mM, CaCl2-2H2O 1.3 mM, 0.1% BSA, Probenecid 2.5 mM) and loaded at 37° C. in 5% CO2 for 1.5 hours with buffer B containing 1 μM Fluo4AM, 0.1 mg/mL Pluronic Acid, 7 μg/mL Glutamate Pyruvate Transaminase and 2 mM sodium pyruvate. Afterwards cells are washed twice with buffer B. Then cells are detached using StemPro Accutase (Fisher Scientific), resuspended in buffer B and seeded in 384 well plate at a density of 30,000 cells per well. Addition of compounds and intracellular Ca^2+ measurements (excitation 485 nm, emission 525 nm) are performed by the fluorescence microplate reader FLIP^Tetra (Molecular Devices).
Agonist and positive allosteric modulator activities of compounds are consecutively evaluated on the same cell plate. Agonist activity is first tested during 10 minutes with the addition of compound alone on the cells. Then, cells are stimulated by an EC20 glutamate concentration and fluorescence is recorded for additional 3 minutes. EC20 glutamate concentration is the concentration giving 20% of the maximal glutamate response. Agonist or positive allosteric modulator activity(ies) are evaluated in comparison to basal signals evoked by buffer B or EC20 glutamate alone, respectively.

T1 sequence (Q14833 33-912): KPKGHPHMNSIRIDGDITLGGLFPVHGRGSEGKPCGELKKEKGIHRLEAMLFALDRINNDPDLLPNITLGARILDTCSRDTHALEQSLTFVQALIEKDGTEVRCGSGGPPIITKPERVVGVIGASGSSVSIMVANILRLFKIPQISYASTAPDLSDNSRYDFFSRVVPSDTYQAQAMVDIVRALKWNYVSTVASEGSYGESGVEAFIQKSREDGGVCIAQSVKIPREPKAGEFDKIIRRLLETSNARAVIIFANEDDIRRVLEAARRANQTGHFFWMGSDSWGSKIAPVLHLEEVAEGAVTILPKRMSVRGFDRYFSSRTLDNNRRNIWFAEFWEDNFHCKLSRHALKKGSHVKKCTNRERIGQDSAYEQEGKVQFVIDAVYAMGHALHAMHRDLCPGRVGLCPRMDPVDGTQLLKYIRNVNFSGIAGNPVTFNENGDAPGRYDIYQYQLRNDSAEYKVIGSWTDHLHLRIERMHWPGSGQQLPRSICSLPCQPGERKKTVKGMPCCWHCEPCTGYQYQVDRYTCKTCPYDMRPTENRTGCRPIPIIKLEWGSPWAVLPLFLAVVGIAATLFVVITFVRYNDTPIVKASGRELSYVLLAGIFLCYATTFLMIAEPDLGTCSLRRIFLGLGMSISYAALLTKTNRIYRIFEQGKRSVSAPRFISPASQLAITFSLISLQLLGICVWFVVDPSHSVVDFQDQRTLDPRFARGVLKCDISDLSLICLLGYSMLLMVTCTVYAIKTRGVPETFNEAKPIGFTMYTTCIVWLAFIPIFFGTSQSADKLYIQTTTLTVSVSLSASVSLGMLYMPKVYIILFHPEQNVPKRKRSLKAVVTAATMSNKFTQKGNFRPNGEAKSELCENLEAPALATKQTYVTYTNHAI

Row | Structure (SMILES) | EC50 | PAM activity on mGluR4
1 | Cl.O=c1[nH]c(-c2cc3ccsc3cn2)nc2ccc(OCCCc3ccncc3)cc12 [Compound 4, hydrochloride] | 100 to 1000 nM | –
2 | Cc1ccnc(-c2nc3ccc(OCCCc4ccncc4)cc3c(=O)[nH]2)c1 [Compound 11, 2-(4-methyl-2-pyridyl)-6-[3-(4-pyridyl)propoxy]-3H-quinazolin-4-one dihydrochloride] | 100 to 1000 nM | –
3 | Cc1cccc(-c2nc3ccc(OCCCc4ccncc4)cc3c(=O)[nH]2)n1 [Compound 12, 2-(6-methyl-2-pyridyl)-6-[3-(4-pyridyl)propoxy]-3H-quinazolin-4-one dihydrochloride] | 100 to 1000 nM | –
4 | O=c1[nH]c(-c2cc(C(F)(F)F)c(Cl)cn2)nc2ccc(OCCCc3ccncc3)cc12 [Compound 14, 2-[5-chloro-4-(trifluoromethyl)-2-pyridyl]-6-[3-(4-pyridyl)propoxy]-3H-quinazolin-4-one hydrochloride] | 1000 to 10000 nM | –
5 | O=c1[nH]c(-c2cccc(C(F)(F)F)n2)nc2ccc(OCCCc3ccncc3)cc12 [Compound 17, 6-[3-(4-pyridyl)propoxy]-2-[6-(trifluoromethyl)-2-pyridyl]-3H-quinazolin-4-one hydrochloride] | ≤ 100 nM | –
6 | Cl.O=c1[nH]c(-c2cccc(Cl)c2)nc2ccc(OCCCc3ccncc3)cc12 [Compound 20, 2-(3-chlorophenyl)-6-[3-(4-pyridyl)propoxy]-3H-quinazolin-4-one hydrochloride] | – | no PAM activity
7 | O=c1[nH]c(-c2cc3sccc3cn2)nc2ccc(OCCc3cccnc3)cc12 [Compound 23, 6-(2-Pyridin-3-yl-ethoxy)-2-thieno[3,2-c]pyridin-6-yl-3H-quinazolin-4-one hydrochloride] | 100 to 1000 nM | –
8 | O=c1[nH]c(-c2cc3sccc3cn2)nc2ccc(OCc3ccc(Br)cc3)cc12 [Compound 24, 6-(4-Bromo-benzyloxy)-2-thieno[3,2-c]pyridin-6-yl-3H-quinazolin-4-one] | > 10000 nM | –
9 | CCC(=O)N1CCC(Oc2ccc3nc(-c4cc5sccc5cn4)[nH]c(=O)c3c2)CC1 [Compound 32, 6-(1-Propionyl-piperidin-4-yloxy)-2-thieno[3,2-c]pyridin-6-yl-3H-quinazolin-4-one] | 100 to 1000 nM | –
10 | Cn1c(-c2cc3sccc3cn2)nc2ccc(OCCCc3ccncc3)cc2c1=O [Compound 38, 3-Methyl-6-(3-pyridin-4-yl-propoxy)-2-thieno[3,2-c]pyridin-6-yl-quinazolin-4-one] | – | no PAM activity
11 | CC(C)(C)OC(=O)N1CCC(Oc2ccc3nc(-c4ccccn4)[nH]c(=O)c3c2)CC1 [Compound 39, 4-(4-Oxo-2-pyridin-2-yl-3,4-dihydro-quinazolin-6-yloxy)-piperidine-1-carboxylic acid tert-butyl ester] | 1000 to 10000 nM | –
12 | CC(=O)N1CCC(Oc2ccc3nc(-c4ccccn4)[nH]c(=O)c3c2)CC1 [Compound 41, 6-(1-Acetyl-piperidin-4-yloxy)-2-pyridin-2-yl-3H-quinazolin-4-one] | > 10000 nM | –
13 | CCC(=O)N1CCN(c2ccc3nc(-c4cc(C(F)(F)F)ccn4)[nH]c(=O)c3c2)CC1 [Compound 54, 6-(4-Propionyl-piperazin-1-yl)-2-(4-trifluoromethyl-pyridin-2-yl)-3H-quinazolin-4-one] | 1000 to 10000 nM | –
14 | CC(=O)N1CCC(c2ccc3nc(-c4cc5ccsc5cn4)[nH]c(=O)c3c2)CC1 [Compound 57, 6-(1-acetyl-piperidin-4-yl)-2-thieno[2,3-c]pyridin-5-yl-3H-quinazolin-4-one] | 100 to 1000 nM | –

More lines, now with the values ahead:

Row | EC50 | PAM activity on mGluR4 | Structure (SMILES)
15 | ≤ 100 nM | – | Cc1cc(OC2CCC(=O)N(C)C2)cc2c(=O)[nH]c(-c3cc4ccsc4cn3)nc12 (single isomer, unassigned) [Compound 81-E1, (R or S)-8-Methyl-6-((1-methyl-6-oxopiperidin-3-yl)oxy)-2-(thieno[2,3-c]pyridin-5-yl)quinazolin-4(3H)-one]
16 | 100 to 1000 nM | – | CCC(=O)N1CC[C@H](Oc2cc(C)c3nc(-c4cc5ccsc5cn4)[nH]c(=O)c3c2)C1 (stereo in doubt) [Compound 82-R, R-8-Methyl-6-(1-propionyl-pyrrolidin-3-yloxy)-2-thieno[2,3-c]pyridin-5-yl-3H-quinazolin-4-one]
17 | – | no PAM activity | Cl.O=c1[nH]c(-c2cccnc2)nc2ccc(OCCCc3ccncc3)cc12 [Compound 6, 2-Pyridin-3-yl-6-(3-pyridin-4-yl-propoxy)-3H-quinazolin-4-one hydrochloride]
18 | 1000 to 10000 nM | – | Cc1cnc(-c2nc3ccc(OCCCc4ccncc4)cc3c(=O)[nH]2)cn1 [Compound 13, 2-(5-methylpyrazin-2-yl)-6-[3-(4-pyridyl)propoxy]-3H-quinazolin-4-one dihydrochloride]
19 | 100 to 1000 nM and < 1000 nM | – | O=c1[nH]c(-c2cc(Cl)ccn2)nc2ccc(OCCCc3ccncc3)cc12 [Compound 15, 2-(4-chloro-2-pyridyl)-6-[3-(4-pyridyl)propoxy]-3H-quinazolin-4-one hydrochloride]
20 | 1000 to 10000 nM | – | CCc1ccnc(-c2nc3ccc(OCCCc4ccncc4)cc3c(=O)[nH]2)c1 [Compound 16, 2-(4-ethyl-2-pyridyl)-6-[3-(4-pyridyl)propoxy]-3H-quinazolin-4-one dihydrochloride]
21 | 100 to 1000 nM | – | O=c1[nH]c(-c2cc(Br)ccn2)nc2ccc(OCCCc3ccncc3)cc12 [Compound 18, 2-(4-bromo-2-pyridyl)-6-[3-(4-pyridyl)propoxy]-3H-quinazolin-4-one]
22 | 100 to 1000 nM | – | O=c1[nH]c(-c2cc(C3CC3)ccn2)nc2ccc(OCCCc3ccncc3)cc12 [Compound 19, 2-(4-cyclopropyl-2-pyridyl)-6-[3-(4-pyridyl)propoxy]-3H-quinazolin-4-one dihydrochioride]
23 | – | no PAM activity | O=c1[nH]c(-c2cccc(C(F)(F)F)c2)nc2ccc(OCCCc3ccncc3)cc12 [Compound 21, 6-[3-(4-pyridyl)propoxy]-2-[3-(trifluoromethyl)phenyl]-3H-quinazolin-4-one hydrochloride]
24 | 1000 to 10000 nM | – | Cc1nc(-c2nc3ccc(OCCCc4ccncc4)cc3c(=O)[nH]2)co1 [Compound 22, 2-(2-Methyl-oxazol-4-yl)-6-(3-pyridin-4-yl-propoxy)-3H-quinazolin-4-one hydrochloride]
25 | > 10000 nM | – | O=c1[nH]c(-c2cc3cccn3cn2)nc2ccc(OC3CN(c4ccncn4)C3)cc12 [Compound 27, 6-(1-Pyrimidin-4-yl-azetidin-3-yloxy)-2-pyrrolo[1,2-c]pyrimidin-3-yl-3H-quinazolin-4-one]
26 | 100 to 1000 nM | – | CCC(=O)N1CC(Oc2ccc3nc(-c4cc5ccsc5cn4)[nH]c(=O)c3c2)C1 [Compound 30, 6-(1-Propionyl-azetidin-3-yloxy)-2-thieno[2,3-c]pyridin-5-yl-3H-quinazolin-4-one]
27 | > 10000 nM | – | O=c1[nH]c(-c2cc3cccn3cn2)nc2ccc(OCCN3CCOCC3)cc12 [Compound 33, 6-(2-Morpholin-4-yl-ethoxy)-2-pyrrolo[1,2-c]pyrimidin-3-yl-3H-quinazolin-4-one hydrochloride]
28 | 100 to 1000 nM | – | CC(=O)N1CCC(COc2ccc3nc(-c4cc(C(F)(F)F)ccn4)[nH]c(=O)c3c2)CC1 [Compound 44, 6-(1-Acetyl-piperidin-4-ylmethoxy)-2-(4-trifluoromethyl-pyridin-2-yl)-3H-quinazolin-4-one]
29 | 100 to 1000 nM | – | CC(=O)N1CCC(Oc2ccc3nc(-c4cc5ccsc5cn4)[nH]c(=O)c3c2)C1 (centres unmarked) [Compound 51, 6-(1-Acetyl-pyrrolidin-3-yloxy)-2-thieno[2,3-c]pyridin-5-yl-3H-quinazolin-4-one]
